Results from patent US10786518B2, “Compositions and methods of treating HIV” (priority 2017, dated 2020).
Where “and” joins values, the source holds several entries; their conditions need not be identical. Identical values can stand only once. Counter-ions that a name gives are not always drawn. Like-named read-outs stand apart in the source and are kept apart here. Marks after values point to notes of the source that are not given here.

Columns and labels:
[1] = Bioequivalence study: plasma pharmacokinetics; conditions: single oral dose D/C/F/TAF 800/150/200/10 mg (test), fed, standardized regular breakfast
clinical [2] = conditions: human, po
[3] = Food-effect bioavailability study: plasma pharmacokinetics; conditions: for AUCinf geometric mean ratio (90% CI), fasted (test) vs fed (reference) / AUClast geometric mean ratio (90% CI), fasted (test) vs fed (reference) / Cmax geometric mean ratio (90% CI), fasted (test) vs fed (reference) / t1/2term, mean (SD) / AUCinf, mean (SD) / AUClast, mean (SD) / Cmax, mean (SD): single oral dose D/C/F/TAF 800/150/200/10 mg;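 for all read-outs here: volunteers randomized to two single-dose treatment sessions separated by a washout of at least 7 days, dosing preceded by an overnight fast of at least 10 h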
clinical [4] = conditions: human
HIV-1 = conditions: n = 102 newly diagnosed treatment-naive patients
[5] = human, in vivo
[6] = human, in vivo; remark: listed apart in the source
[7] = cited from earlier work; for Mean systemic tenofovir exposure: TAF group versus TDF group of the Phase II study
[8] = administered as D/C/F/TAF, fed = standardized high-fat breakfast
[9] = fed, standardized high-fat breakfast (reference)
[10] = subset of 32 treatment-naive HIV-1-infected adults

| SMILES | t1/2term, mean [1] [h] | AUCinf lower in fasted compared with fed conditions [3, 8] [%] | AUCinf geometric mean ratio (90% CI), fasted (test) vs fed (reference) [3] | AUClast geometric mean ratio (90% CI), fasted (test) vs fed (reference) [3] | Cmax geometric mean ratio (90% CI), fasted (test) vs fed (reference) [3] | t1/2term, mean (SD) ([3]; fasted (test)) | AUCinf, mean (SD) [3, 9] | Cmax, mean (SD) [3, 9] | t1/2term, mean (SD) [3, 9] | Genotypic susceptibility at screening/baseline, patients (HIV-1) | AUC(0-inf) (clinical [4]; in vivo) [ng·h/mL] | Cmax (clinical [4]; in vivo) [ng/mL] | AUC(0-t) (clinical [4]; in vivo) [ng·h/mL] | Mean systemic tenofovir exposure [7] [ng·h/mL] | further results |
| --- | --- | --- | --- | --- | --- | --- | --- | --- | --- | --- | --- | --- | --- | --- | --- |
| CC(C)c1nc(CN(C)C(=O)N[C@@H](CCN2CCOCC2)C(=O)N[C@H](CC[C@H](Cc2ccccc2)NC(=O)OCc2cncs2)Cc2ccccc2)cs1 [COBI, cobicistat] | 3.7 | 16 | 84.39^k (68.52-103.95)^ % | 70.90 (51.13-98.30) % | 76.96 (55.70-106.33) % | 4.1 (0.9) hours | 6258 (2268) ng · h/mL | 711 (164) ng/mL | 3.9 (0.6) hours | – | – | – | – | – | Tmax (clinical [2]; plasma): 3 h; AUClast lower in fasted compared with fed conditions [3, 8]: 29%; Cmax lower in fasted compared with fed conditions [3, 8]: 23%; AUClast, mean (SD) [3, 9]: 6168 (2260) ng · h/mL; AUC(0-inf) (clinical [4]; plasma, oral): 6870 ng·h/mL; AUC(0-t) (clinical [4]; plasma, oral): 6760 ng·h/mL; Cmax (clinical [4]; plasma, oral): 881 ng/mL; Tmax (clinical [4]; plasma, oral): 4 h |
| CC(C)CN(C[C@@H](O)[C@H](Cc1ccccc1)NC(=O)O[C@H]1CO[C@H]2OCC[C@H]21)S(=O)(=O)c1ccc(N)cc1 [DRV, darunavir] | – | – | – | – | – | – | – | – | – | (100) % | 85200 | 6620 | – | – | – |
| Nc1nc(=O)n([C@@H]2CS[C@H](CO)O2)cc1F [FTC, emtricitabine] | – | – | – | – | – | – | – | – | – | (98) % | 11900 | 2050 | 11700 | – | AUCinf geometric mean ratio, test vs reference [5]: 100.13%; AUClast geometric mean ratio, test vs reference [5]: 100.04%; Cmax geometric mean ratio, test vs reference [5]: 99.32%; t1/2term, mean [5]: 17.0 h; t1/2term, mean ([5]; po): 16.5 h; Cmax higher in fasted compared with fed conditions [6]: 26%; AUClast geometric mean ratio (90% CI), fasted (test) vs fed (reference) ([6]; po): 100.12 (96.29-104.10) % |
| CC(C)OC(=O)[C@H](C)N[P@](=O)(CO[C@H](C)Cn1cnc2c(N)ncnc21)Oc1ccccc1 [TAF, tenofovir alafenamide] | 0.3 | 20 | 80.38^l (73.04-88.45)^ % | 89.54 (81.20-98.72) % | 182.29 (140.50-236.50) % | 0.3 (0.2) hours | 125 (57.3) ng · h/mL | 107 (65.2) ng/mL | 0.5 hours and 0.5 (0.1) hours | – | 141 | 120 | 132 | 339 | Lower mean systemic tenofovir exposure than in the TDF group ([7]; Phase II study): greater than 90%; Mean plasma exposure (AUClast) [7, 10]: 130.5 ng·h/mL; Median plasma half-life [7, 10]: 0.45 h; Tmax (clinical [2]; in vivo): 0.5 h; AUClast, fasted versus fed conditions (90% CI of the GMR within 80% to […]) ([3]; administered as D/C/F/TAF): comparable under both conditions; Cmax higher in fasted compared with fed conditions [3, 8]: 82%; AUClast, mean (SD) ([3]; fasted (test)): 106 (44.7) ng · h/mL; Tmax (clinical [4]; in vivo): 1.01 h |
| CC(C)OC(=O)OCOP(=O)(CO[C@H](C)Cn1cnc2c(N)ncnc21)OCOC(=O)OC(C)C [TDF, tenofovir disoproxil fumarate] | – | – | – | – | – | – | – | – | – | (100) % | – | – | – | 3737 | – |
